# Results from article PMC6133092, “Synthesis of 2-alkylthio-N-(quinazolin-2-yl)benzenesulfonamide derivatives: anticancer activity, QSAR studies, and metabolic stability” (Monatshefte Fur Chemie, 2018).
# Key:
# HOP-92 = experiment: NCI-60 single dose screen, HOP-92; format: cell-based; settings: Homo sapiens, NSCLC, single concentration 10^−5 M, read-out: IGP (inhibition growth percent) HOP-92
# Description: (§1) Aside from above, compounds 9–14 and 17–24 were also submitted to National Cancer Institute and evaluated for the cytotoxic effects toward 60 cell lines at a single dose of 10 μM (Table 2). […] As it was summarized in Table 2, leukemia RPMI-8226 and NSCLC A549/ATCC were most sensitive to compounds 18, 22, and 24. These derivatives in 10 μM concentration inhibited the growth of approximately 50% cells belonging to the above mention cell lines.
# (§2) Cytotoxicity evaluation of compounds 9–14 and 17–24 was performed at the National Cancer Institute according to NCI-60 DTP human tumor cell line screen procedure.
# SR = experiment: NCI-60 single dose screen, SR; format: cell-based; settings: Homo sapiens, Leukemia, single concentration 10^−5 M, read-out: IGP (inhibition growth percent) SR
# Description: as §1, §2
# MCF-7 = experiment: NCI-60 single dose screen, MCF-7; format: cell-based; settings: Homo sapiens, MCF7; Breast cancer; single concentration 10^−5 M; read-out: IGP (inhibition growth percent) MCF-7
# Description: as §1, §2
# HeLa (cervical cancer) = experiment: MTT cell viability assay, HeLa; format: cell-based; settings: Homo sapiens
# Description: (§3) All chemicals, if not stated otherwise, were obtained from Sigma-Aldrich (St. Louis, MO, USA). The MCF-7 and HeLa cell lines were purchased from Cell Lines Services (Eppelheim, Germany), the HCT-116 cell line was purchased from ATCC (ATCC-No: CCL-247). Cells were cultured in Dulbecco’s modified Eagle’s medium (DMEM) supplemented with 10% fetal bovine serum, 2 mM glutamine, 100 units/cm^3 penicillin, and 100 μg/cm^3 streptomycin. Cultures were maintained in a humidified atmosphere with 5% CO2 at 37 °C in an incubator (Heraceus, HeraCell).
# (§4) Cell viability was determined using the MTT (3-(4,5-dimethylthiazol-2-yl)-2,5-diphenyltetrazolium bromide) assay. Cells were seeded in 96-well plates at a density of 5 × 10^3 cells/well and treated for 72 h with the examined compounds in the concentration range 1–100 μM (1, 10, 25, 50, and 100 μM). Following treatment, MTT (0.5 mg/cm^3) was added to the medium and cells were further incubated for 2 h at 37 °C. Cells were lysed with DMSO and the absorbance of the formazan solution was measured at 550 nm with a plate reader (Victor, 1420 multilabel counter). […] The experiment was performed in triplicate. Values are expressed as the mean ± SD of at least three independent experiments.
# [1] = Metabolic stability in human liver microsomes with NADPH; format: in vitro ADME; settings: pooled human liver microsomes, pH 7.4, human liver microsomes 0.5 mg/cm^3, NADPH 1 mM, 10 μM compound, 37 °C, read-out: in vitro metabolic half-life t1/2
# Description: Selected derivatives were submitted to metabolic stability study to assess their ability to remain unchanged in the presence of human metabolic enzymes. Human liver microsomes were used as they are a rich source of all common CYP isoenzymes. In vitro incubations were performed in the presence of NADPH as a cofactor and the disappearance of a derivative was followed using LC–MS technique. The in vitro metabolic half-life values are gathered in Fig. 3.
# Stock solutions of studied compounds were prepared at concentration of 10 mM in DMSO. […] Incubation mixture contained 10 μM of a studied derivative, 1 mM of NADPH (Sigma-Aldrich) and 0.5 mg/cm^3 of pooled human liver microsomes (HLM, Sigma-Aldrich) in potassium phosphate buffer (0.1 M, pH 7.4). Incubation was carried out in thermostat at 37 °C and started by addition of studied compound. 50 mm^3 samples were taken at starting point and after 5, 15, 30, 45, and 60 min. Enzymatic reaction was terminated by the addition of the equal volume of ice-cold acetonitrile. Incubations were performed in triplicates, the average t1/2 and standard deviation was calculated. Control incubations were performed without NADPH to assess chemical instability. After collection, samples were immediately centrifuged (10 min, 10,000 rpm) and resulted supernatant was directly analyzed or kept in − 80 °C until LC–MS analysis. Natural logarithm of a compound over IS peak area ratio was plotted versus incubation time. Metabolic half-time (t1/2) was calculated from the slope of the linear regression.
# LC–MS analysis was performed on an Agilent 1260 system coupled to SingleQuad 6120 mass spectrometer (Agilent Technologies, Santa Clara, CA, USA). Poroshell EC-C18 (2.1 mm × 150 mm, 2.7 μm, Agilent Technologies, Santa Clara, CA, USA) was used in reversed-phase mode with gradient elution starting with 5% of phase A (10 mM ammonium formate in water) and 95% of phase B (10 mM ammonium formate in acetonitrile–water mixture, 95:5 v/v). […] Total analysis time was 15 min at 40 °C, flow rate was 1 cm^3/min and the injection volume was 5 mm^3. The mass spectrometer was equipped with electrospray ion source and operated in positive ionization. Mass analyzer was set individually to each compound to detect [M+H]^+ protonated molecule. MSD parameters of the ESI source were as follows: nebulizer pressure 35 psig (N2), drying gas […] (N2), drying gas temperature 300 °C, capillary voltage 3 kV, fragmentor voltage 150 V.
# HCT-116, HeLa, MCF-7 = experiment: MTT assays, mean over three tested cell lines; format: cell-based; settings: Homo sapiens, mean of HCT-116, HeLa, read-out: mean IC50 against three tested cell lines
# Description: (§5) All of the newly synthesized compounds 9–24 were evaluated for their effects on cell viability in three human cancer cell lines: HCT-116 (colon cancer), HeLa (cervical cancer), and MCF-7 (breast cancer). Cisplatin was used as reference drug. […] Considering the activity of derivatives 9–12, 15, 17, 18, and 21–24, it can be noticed that phenyl group as R^3 bring an increase of cytotoxicity in comparison with methyl in place of R^3. However, this impact seems to be the most important for compounds with the bulky group in R^1 and generally, it is less for a set of derivatives with methyl group substituted in R^1 (9–12).
# as §4
# HCT-116 (colon cancer) = experiment: MTT cell viability assay, HCT-116; format: cell-based; settings: Homo sapiens, 72 h, mean ± SD
# Description: as §3, §4
# MCF-7 (breast cancer) = experiment: MTT cell viability assay, MCF-7; format: cell-based, human; settings: Homo sapiens, MCF7, 72 h, mean ± SD
# Description: as §5, §3, §4
# UACC-62 = experiment: NCI-60 single dose screen, UACC-62; format: cell-based; settings: Homo sapiens, Melanoma, single concentration 10^−5 M, read-out: IGP (inhibition growth percent) UACC-62
# Description: as §1, §2
# A549/ATCC = experiment: NCI-60 single dose screen, A549/ATCC; format: cell-based; settings: Homo sapiens, A549, NSCLC; single concentration 10^−5 M; read-out: IGP (inhibition growth percent) A549/ATCC
# Description: as §1, §2
# NCI-H522 = experiment: NCI-60 single dose screen, NCI-H522; format: cell-based; settings: Homo sapiens, NSCLC, single concentration 10^−5 M, read-out: IGP (inhibition growth percent) NCI-H522
# Description: as §1, §2
# [2] = Table 4, repeats Table 1 values without SD and unit
"IC50 (HeLa (cervical cancer); MTT, 72 h, mean ± SD) [µM]",IC50 (HeLa (cervical cancer); [2]) [µM],half-life at 10 μM [1] [min],"IC50 (HCT-116, HeLa, MCF-7) [µM]",IC50 (HCT-116 (colon cancer)) [µM],IC50 (MCF-7 (breast cancer)) [µM],SMILES,inhibition at 10 µM (HOP-92) [%],inhibition at 10 µM (SR) [%],inhibition at 10 µM (MCF-7) [%],inhibition at 10 µM (UACC-62) [%],inhibition at 10 µM (A549/ATCC) [%],inhibition at 10 µM (NCI-H522) [%]
46 ± 2,46,11.2,44.7,42 ± 1,46 ± 1,"O=C(Nc1ccccc1)c1cc(S(=O)(=O)Nc2nc(-c3ccccc3)c3ccccc3n2)c(SCc2ccccc2)cc1Cl [Compound 18, 2-Benzylthio-4-chloro-5-phenylcarbamoyl-N-(4-phenylquinazolin-2-yl)benzenesulfonamide]",26,28,14,39,~50,25
42 ± 0.5,42,67.2,44.7,39 ± 1,53 ± 1,"O=C(Nc1ccc(Cl)cc1)c1cc(S(=O)(=O)Nc2nc(-c3ccccc3)c3ccccc3n2)c(SCc2ccccc2)cc1Cl [Compound 22, 2-Benzylthio-4-chloro-5-(4-chlorophenylcarbamoyl)-N-(4-phenylquinazolin-2-yl)benzenesulfonamide]",34,40,20,40,~50,35
44 ± 3,–,42.3,45.7,41 ± 1,52 ± 3,"Cc1ccc(NC(=O)c2cc(S(=O)(=O)Nc3nc(-c4ccccc4)c4ccccc4n3)c(SCc3ccccc3)cc2Cl)cc1 [Compound 24, 2-Benzylthio-4-chloro-5-(4-methylphenylcarbamoyl)-N-(4-phenylquinazolin-2-yl)benzenesulfonamide]",26,23,23,28,~50,28
